Common to all, as to type: biochemical
The target of series [1] is T1, CYP3A4 (Homo sapiens, UniProt P08684). In words: midazolam […]'-hydroxylation, LC-MS/MS. More on the design: native enzyme in pooled human liver microsomes, midazolam 1'-hydroxylation probe (CYP3A5 may contribute). The following applies: microsomes, read-out: IC50 value / Kushenol A.
For another series, the target named is T2, CYP2B6 (Homo sapiens, UniProt P20813).
T2 construct: native enzyme in pooled human liver microsomes, bupropion 6-hydroxylation probe
T2 sequence (P20813 1-491): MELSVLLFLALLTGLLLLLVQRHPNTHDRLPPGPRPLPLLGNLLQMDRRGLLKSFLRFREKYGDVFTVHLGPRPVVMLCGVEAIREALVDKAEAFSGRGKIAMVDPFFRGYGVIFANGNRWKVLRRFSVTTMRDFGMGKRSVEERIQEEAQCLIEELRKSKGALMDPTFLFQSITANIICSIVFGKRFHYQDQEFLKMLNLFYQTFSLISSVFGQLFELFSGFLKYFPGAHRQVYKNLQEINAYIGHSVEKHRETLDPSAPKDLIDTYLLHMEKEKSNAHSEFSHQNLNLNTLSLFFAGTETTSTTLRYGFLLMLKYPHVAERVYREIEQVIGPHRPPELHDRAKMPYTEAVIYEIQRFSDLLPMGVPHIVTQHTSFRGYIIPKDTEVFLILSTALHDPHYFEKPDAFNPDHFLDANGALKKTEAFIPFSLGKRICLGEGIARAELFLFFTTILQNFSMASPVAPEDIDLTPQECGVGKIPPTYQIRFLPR
In words: bupropion 6-hydroxylation, LC-MS/MS. The conditions noted are these: microsomes. From the text: bupropion 6-hydroxylation, LC-MS/MS on CYP2B6

For another series, the target named is T3, CYP2D6 (Homo sapiens, UniProt P10635).
T3 construct: native enzyme in pooled human liver microsomes, dextromethorphan O-demethylation probe
In words: dextromethorphan to dextrorphan, LC-MS/MS. The conditions noted are these: microsomes, read-out: IC50 value / Kushenol A. From the text:
dextromethorphan to dextrorphan, LC-MS/MS on CYP2D6

Another series concerns the target T4, CYP2C8 (Homo sapiens, UniProt P10632).
T4 construct: methods text says paclitaxel
T4 sequence (P10632 1-490): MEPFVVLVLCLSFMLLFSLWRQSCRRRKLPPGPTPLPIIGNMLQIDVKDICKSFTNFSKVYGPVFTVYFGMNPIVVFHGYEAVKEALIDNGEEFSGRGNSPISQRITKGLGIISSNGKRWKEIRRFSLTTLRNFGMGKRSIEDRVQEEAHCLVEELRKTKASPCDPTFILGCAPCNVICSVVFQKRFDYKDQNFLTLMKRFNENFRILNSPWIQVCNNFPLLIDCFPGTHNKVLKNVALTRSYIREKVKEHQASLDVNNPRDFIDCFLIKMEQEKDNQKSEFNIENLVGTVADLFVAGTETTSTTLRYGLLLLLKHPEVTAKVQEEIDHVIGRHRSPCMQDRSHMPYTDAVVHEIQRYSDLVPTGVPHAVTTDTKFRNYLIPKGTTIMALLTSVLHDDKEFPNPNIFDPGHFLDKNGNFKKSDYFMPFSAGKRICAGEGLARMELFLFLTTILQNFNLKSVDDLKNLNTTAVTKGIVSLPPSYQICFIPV
In words: rosiglitazone hydroxylation, LC-MS/MS. The conditions noted are these: microsomes. From the text: rosiglitazone hydroxylation, LC-MS/MS on CYP2C8

The target of a further series is T5, CYP1A2 (Homo sapiens, UniProt P05177).
T5 construct: native enzyme in pooled human liver microsomes, phenacetin O-deethylation probe
T5 sequence (P05177 2-516): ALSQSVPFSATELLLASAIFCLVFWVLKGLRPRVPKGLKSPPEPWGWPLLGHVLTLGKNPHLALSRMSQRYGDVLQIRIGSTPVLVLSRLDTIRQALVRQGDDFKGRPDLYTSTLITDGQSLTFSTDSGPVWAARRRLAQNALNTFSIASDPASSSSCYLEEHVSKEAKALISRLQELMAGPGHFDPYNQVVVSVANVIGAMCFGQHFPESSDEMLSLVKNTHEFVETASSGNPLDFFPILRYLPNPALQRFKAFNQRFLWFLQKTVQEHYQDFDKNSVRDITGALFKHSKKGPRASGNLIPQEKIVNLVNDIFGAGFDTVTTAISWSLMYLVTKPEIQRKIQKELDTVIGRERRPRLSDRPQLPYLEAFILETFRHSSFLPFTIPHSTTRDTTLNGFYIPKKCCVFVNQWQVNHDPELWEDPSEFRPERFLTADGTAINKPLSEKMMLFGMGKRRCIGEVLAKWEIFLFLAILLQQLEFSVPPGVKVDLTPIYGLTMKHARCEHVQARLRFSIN
In words: phenacetin to acetaminophen, LC-MS/MS. The following applies: microsomes. From the text: phenacetin to acetaminophen, LC-MS/MS on CYP1A2

The target of another series is T6, CYP2A6 (Homo sapiens, UniProt P11509).
T6 construct: native enzyme in pooled human liver microsomes, coumarin 7-hydroxylation probe
T6 sequence (P11509 1-494): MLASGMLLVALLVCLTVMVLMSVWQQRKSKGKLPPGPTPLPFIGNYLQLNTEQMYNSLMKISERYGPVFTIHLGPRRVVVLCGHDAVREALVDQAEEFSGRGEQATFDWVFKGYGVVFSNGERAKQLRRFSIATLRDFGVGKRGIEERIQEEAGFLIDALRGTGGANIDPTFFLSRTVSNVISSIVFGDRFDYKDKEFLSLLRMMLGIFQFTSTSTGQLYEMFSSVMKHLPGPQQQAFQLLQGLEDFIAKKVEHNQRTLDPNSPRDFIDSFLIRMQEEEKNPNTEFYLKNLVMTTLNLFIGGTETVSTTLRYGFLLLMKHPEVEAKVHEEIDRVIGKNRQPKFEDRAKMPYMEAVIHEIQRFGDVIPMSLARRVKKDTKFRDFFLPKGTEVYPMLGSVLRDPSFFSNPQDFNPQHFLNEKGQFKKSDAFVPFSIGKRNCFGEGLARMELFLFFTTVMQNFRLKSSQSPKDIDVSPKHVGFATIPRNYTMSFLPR
As to the kind of experiment: coumarin 7-hydroxylation, LC-MS/MS. The conditions noted are these: human liver microsomes; no preincubation; NADPH-generating system, pH 7.4, 37°C; read-out: IC50 value / Kushenol A. From the text: coumarin 7-hydroxylation, LC-MS/MS on CYP2A6
On the technique in general: Liver microsomes are a subcellular fraction often used to study metabolism.

The next series has as its target T7, CYP2C19 (Homo sapiens, UniProt P33261).
T7 construct: native enzyme in pooled human liver microsomes, S-mephenytoin 4-hydroxylation probe (methods text misprints CYP2C18)
As to the kind of experiment: S-mephenytoin 4-hydroxylation, LC-MS/MS. The conditions noted are these: microsomes, read-out: IC50 value / Kushenol A. From the text: S-mephenytoin 4-hydroxylation, LC-MS/MS on CYP2C19

The target in the next series is T8, CYP2C9 (Homo sapiens, UniProt P11712).
T8 construct: methods text says tolbutamide
As to the kind of experiment: diclofenac hydroxylation, LC-MS/MS. The following applies: microsomes. The text has this:
diclofenac hydroxylation, LC-MS/MS on CYP2C9

Series [2] addresses T1, CYP3A4. In words: time-dependent inactivation, midazolam […]'-hydroxylation, LC-MS/MS. More on the design: recombinant, baculovirus-insect cell expressed, commercial (BD Gentest).
Series [3] addresses T1, CYP3A4. Described as above. More on the design: native enzyme in pooled human liver microsomes, midazolam 1'-hydroxylation probe (CYP3A5 may contribute). The following applies: microsomes.
[4] abbreviates: read-out: IC50 value / Kushenol A.
Setting [5] is: read-out: IC50 value / Kushenol C.
[6] abbreviates: read-out: IC50 value / Kushenol I.
The mark [7] stands for this setting: read-out: IC50 value / Leachianone A.
The mark [8] stands for this setting: read-out: IC50 value / Sophoraflavone G.

Consider six compounds from publication PMC6436327, “Inhibition of Cytochrome P450 Activities by Sophora flavescens Extract and Its Prenylated Flavonoids in Human Liver Microsomes” (Evidence-based Complementary and Alternative Medicine : eCAM, 2019).

Read-outs that look alike come from different tables or passages of the source. Where only a bound is given, the exact number is not on record here.

T1 sequence (P08684 2-503): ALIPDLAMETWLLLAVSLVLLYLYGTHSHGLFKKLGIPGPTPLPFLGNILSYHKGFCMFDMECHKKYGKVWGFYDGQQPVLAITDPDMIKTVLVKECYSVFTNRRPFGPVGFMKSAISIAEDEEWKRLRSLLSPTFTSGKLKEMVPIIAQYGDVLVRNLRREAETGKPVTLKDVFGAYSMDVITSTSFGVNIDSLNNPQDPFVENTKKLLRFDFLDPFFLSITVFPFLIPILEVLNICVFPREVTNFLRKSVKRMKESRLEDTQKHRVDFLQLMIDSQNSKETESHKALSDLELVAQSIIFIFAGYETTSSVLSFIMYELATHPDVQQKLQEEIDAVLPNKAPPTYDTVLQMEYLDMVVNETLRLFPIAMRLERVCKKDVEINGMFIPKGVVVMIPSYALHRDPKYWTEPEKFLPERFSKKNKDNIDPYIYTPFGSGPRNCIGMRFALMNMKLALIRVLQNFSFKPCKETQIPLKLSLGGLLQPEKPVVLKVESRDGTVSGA
T7 sequence (P33261 whole entry): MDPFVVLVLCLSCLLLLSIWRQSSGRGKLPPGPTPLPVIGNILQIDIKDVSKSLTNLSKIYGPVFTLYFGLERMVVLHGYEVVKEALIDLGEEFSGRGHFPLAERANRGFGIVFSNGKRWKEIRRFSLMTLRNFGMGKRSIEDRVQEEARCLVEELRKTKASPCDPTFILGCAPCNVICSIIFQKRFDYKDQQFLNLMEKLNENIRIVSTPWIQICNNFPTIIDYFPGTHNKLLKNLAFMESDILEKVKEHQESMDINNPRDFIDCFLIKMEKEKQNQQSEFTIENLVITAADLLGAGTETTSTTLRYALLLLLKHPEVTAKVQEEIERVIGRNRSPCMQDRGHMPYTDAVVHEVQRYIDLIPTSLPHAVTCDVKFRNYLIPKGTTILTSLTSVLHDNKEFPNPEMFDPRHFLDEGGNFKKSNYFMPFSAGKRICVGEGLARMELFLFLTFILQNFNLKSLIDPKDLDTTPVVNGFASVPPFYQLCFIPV
T8 sequence (P11712 whole entry): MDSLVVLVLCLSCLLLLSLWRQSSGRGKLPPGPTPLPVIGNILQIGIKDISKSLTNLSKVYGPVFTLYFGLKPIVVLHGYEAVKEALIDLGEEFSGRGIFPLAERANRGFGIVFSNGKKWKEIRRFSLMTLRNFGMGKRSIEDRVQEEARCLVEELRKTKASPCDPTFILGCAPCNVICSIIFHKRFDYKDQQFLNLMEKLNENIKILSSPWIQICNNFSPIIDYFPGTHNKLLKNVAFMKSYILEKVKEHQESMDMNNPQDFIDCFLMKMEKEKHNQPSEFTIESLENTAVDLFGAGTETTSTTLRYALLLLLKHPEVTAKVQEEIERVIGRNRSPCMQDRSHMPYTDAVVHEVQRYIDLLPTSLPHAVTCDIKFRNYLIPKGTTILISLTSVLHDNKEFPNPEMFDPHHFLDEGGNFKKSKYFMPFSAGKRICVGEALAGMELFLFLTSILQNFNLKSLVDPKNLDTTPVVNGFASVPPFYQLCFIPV
T3 sequence (P10635 whole entry): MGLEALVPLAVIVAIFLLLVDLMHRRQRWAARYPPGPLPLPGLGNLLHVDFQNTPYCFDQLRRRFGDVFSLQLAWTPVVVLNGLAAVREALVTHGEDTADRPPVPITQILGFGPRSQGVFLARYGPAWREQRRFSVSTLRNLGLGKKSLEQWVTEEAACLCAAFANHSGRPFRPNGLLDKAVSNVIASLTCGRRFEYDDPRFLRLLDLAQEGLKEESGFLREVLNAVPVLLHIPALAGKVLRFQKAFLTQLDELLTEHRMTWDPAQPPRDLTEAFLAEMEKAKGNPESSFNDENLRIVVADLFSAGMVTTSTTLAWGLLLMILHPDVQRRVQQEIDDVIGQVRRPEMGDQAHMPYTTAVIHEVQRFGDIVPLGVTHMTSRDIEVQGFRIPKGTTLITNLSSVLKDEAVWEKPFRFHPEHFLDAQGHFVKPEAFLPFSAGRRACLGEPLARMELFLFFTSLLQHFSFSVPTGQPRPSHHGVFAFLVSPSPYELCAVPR

As to `C=C(C)[C@H](CC=C(C)C)Cc1c(O)cc(O)c2c1O[C@H](c1ccccc1O)CC2=O` [Kushenol A], the IC50 on CYP3A4 [1], at CYP2B6 (setting [4]), at CYP2D6, on CYP2C8 (setting [4]), at CYP1A2 (setting [4]) and at CYP2A6 was above 50 µM in each case. The IC50 at CYP2C19 and on CYP2C9 (setting [4]) was above 50 µM in each case.
Take `C=C(C)[C@H](CC=C(C)C)Cc1c(O)cc(O)c2c(=O)c(O)c(-c3ccc(O)cc3O)oc12` [Kushenol C]: the IC50 at CYP3A4 [1] is above 50 µM; on CYP2B6 (setting [4]), above 50 µM; on CYP2D6 it was above 50 µM; on CYP2C8 (setting [4]) it was above 50 µM; at CYP1A2 (setting [5]), 5 µM; on CYP2C19 it was above 50 µM. For the same compound, the IC50 at CYP2C9 (setting [5]) is 9.3 µM.
With `C=C(C)[C@H](CC=C(C)C)Cc1c(O)cc(OC)c2c1O[C@H](c1ccc(O)cc1O)[C@@H](O)C2=O` [Kushenol I], the IC50 on CYP3A4 [1] is above 50 µM; at CYP2B6 (setting [4]) it was above 50 µM; at CYP2D6, above 50 µM; on CYP2C8 (setting [6]) it was 0.67 µM; on CYP1A2 (setting [4]), above 50 µM; on CYP2C19, above 50 µM. In addition, the IC50 at CYP2C9 (setting [6]) amounted to 7.35 µM. Also, the KI (inactivation) on CYP3A4 [2] was 0.88 µM; at CYP3A4 [3], 0.24 µM.
In the case of `C=C(C)[C@H](CC=C(C)C)Cc1c(O)c(CC=C(C)C)c(O)c2c1O[C@H](c1ccc(O)cc1O)[C@@H](O)C2=O` [Kushenol M], the IC50 on CYP3A4 [1], on CYP2B6 (setting [4]), at CYP2D6, on CYP2C8 (setting [4]), on CYP1A2 (setting [4]) and on CYP2C19 was above 50 µM each time. Besides, the IC50 at CYP2C9 (setting [4]) was above 50 µM.
As for `C=C(C)[C@H](CC=C(C)C)Cc1c(O)cc(O)c2c1O[C@H](c1ccc(O)cc1OC)CC2=O` [Leachianone A], the IC50 is above 50 µM at CYP3A4 [1]; 5.74 µM on CYP2B6 (setting [7]); above 50 µM at CYP2D6; 0.75 µM at CYP2C8 (setting [7]); above 50 µM on CYP1A2 (setting [4]); above 50 µM at CYP2C19. On CYP2C9 (setting [4]), the IC50 was above 50 µM.
Turning to `C=C(C)[C@H](CC=C(C)C)Cc1c(O)cc(O)c2c1O[C@H](c1ccc(O)cc1O)CC2=O` [Sophoraflavone G], the IC50 was above 50 µM at CYP3A4 [1]; 2.42 µM on CYP2B6 (setting [8]); above 50 µM on CYP2D6; 0.32 µM on CYP2C8 (setting [8]); 2.26 µM at CYP1A2 (setting [8]); above 50 µM at CYP2A6. Further, the IC50 on CYP2C9 (setting [8]) came to 1.25 µM.
